# Read-outs that look alike come from different tables or passages of the source.
# How the values were obtained:
# [1] = target: T1, D3R (Homo sapiens, UniProt P35462); experiment: D3R radioligand binding assay ([125I]IABN, HEK cells); set-up: expressed in transfected cells; settings: for Ki: human D3 expressed in HEK cells, [125I]IABN radioligand, at least three experiments, HCl salts, read-out: Ki ± SEM D3R; for D2R/D3R Ratio: (Ki for D2R)/(Ki for D3R), D3R versus D2R selectivity (fold)
# Method: (§1) The receptor binding assay for the D2R and the D3R and the β-arrestin recruitment assay for the D3R were performed by following the previously reported methods.
# [2] = target: T1, D3R; experiment: β-arrestin competition (recruitment) assay against dopamine; type: cell-based; settings: competition with dopamine (30 nM) for the D3R, at least three experiments; read-out: β-Arrestin Assay IC50 ± SEM
# Method: Compounds having a longer aliphatic linker ((R,S)-trans-2b–d) have a similar IC50 value in this assay. As expected, the IC50 value of β-arrestin assay parallels the Ki value in the D3R binding assay. It is of interest to note that the potency of (R,S)-trans-2a in the β-arrestin assay is higher than its potency in the in vitro binding assay for the D3R.
# as §1
# [3] = target: T2, human D2 (Homo sapiens, UniProt P14416); experiment: D2R radioligand binding assay ([125I]IABN, HEK cells); settings: human D2 expressed in HEK cells, [125I]IABN radioligand, at least three experiments, HCl salts; read-out: Ki ± SEM D2R
# T2 construct: expressed in transfected cells
# T2 sequence (P14416 whole entry): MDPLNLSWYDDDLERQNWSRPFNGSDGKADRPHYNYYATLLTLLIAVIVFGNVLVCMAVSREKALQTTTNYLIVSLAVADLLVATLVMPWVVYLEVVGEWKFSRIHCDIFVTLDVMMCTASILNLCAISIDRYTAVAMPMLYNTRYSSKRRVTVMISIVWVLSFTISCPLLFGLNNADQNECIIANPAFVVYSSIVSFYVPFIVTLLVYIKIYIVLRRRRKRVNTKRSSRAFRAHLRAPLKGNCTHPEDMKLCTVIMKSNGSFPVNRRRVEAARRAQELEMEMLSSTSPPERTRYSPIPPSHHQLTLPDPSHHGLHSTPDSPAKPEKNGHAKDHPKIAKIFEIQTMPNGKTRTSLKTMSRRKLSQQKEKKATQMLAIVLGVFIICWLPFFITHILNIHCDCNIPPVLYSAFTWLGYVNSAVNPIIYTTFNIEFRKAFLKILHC
# Method: as §1
# [4] = target: T1, D3R; settings: cited from earlier work; for Ki: read-out: D3R affinity
# [5] = target: D2R; settings: cited from earlier work
# [6] = target: T1, D3R; set-up: method as in PMID 33918451; settings: MDS, Fallypride; cited from earlier work
# [7] = Figure 1, PET radiotracers, read-out: D2R affinity
# T1 sequence (P35462 whole entry): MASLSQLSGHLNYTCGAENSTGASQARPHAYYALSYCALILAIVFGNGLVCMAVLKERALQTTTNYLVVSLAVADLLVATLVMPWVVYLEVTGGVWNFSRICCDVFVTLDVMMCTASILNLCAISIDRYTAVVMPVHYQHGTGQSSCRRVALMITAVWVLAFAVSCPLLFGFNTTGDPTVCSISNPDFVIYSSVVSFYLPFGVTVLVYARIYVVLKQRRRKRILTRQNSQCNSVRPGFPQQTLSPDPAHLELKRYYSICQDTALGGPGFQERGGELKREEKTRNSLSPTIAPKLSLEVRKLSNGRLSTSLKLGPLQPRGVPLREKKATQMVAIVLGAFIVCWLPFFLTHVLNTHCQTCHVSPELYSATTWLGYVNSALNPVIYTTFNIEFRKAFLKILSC
Structure (SMILES),Ki [1] [nM],IC50 [2] [nM],Ki [3] [nM],D2R/D3R Ratio [1],further results
"C=CCN1C[C@H](OC(=O)NCCCCCCCCCC)C[C@@H]1CNC(=O)c1cc(CCCF)cc(OC)c1OC [(R,R)-cis-2d, (3R,5R)-1-allyl-5-((5-(3-fluoropropyl)-2,3-dimethoxybenzamido)methyl)pyrrolidin-3-yl decylcarbamate]",1660 ± 433,> 1000,9600 ± 2360,–,–
"C=CCN1C[C@H](OC(=O)NCCCCCCCCc2cccs2)C[C@@H]1CNC(=O)c1cc(CCCF)cc(OC)c1OC [(R,R)-cis-2i, (3R,5R)-1-allyl-5-((5-(3-fluoropropyl)-2,3-dimethoxybenzamido)methyl)pyrrolidin-3-yl (8-(thiophen-2-yl)octyl)carbamate]",722 ± 234,–,2190 ± 235,3.0,–
"C=CCN1C[C@H](OC(=O)NCCCC)C[C@H]1CNC(=O)c1cc(CCCF)cc(OC)c1OC [(R,S)-trans-2a, (3R,5S)-1-allyl-5-((5-(3-fluoropropyl)-2,3-dimethoxybenzamido)methyl)pyrrolidin-3-yl butylcarbamate]",2.6 ± 0.3,0.8 ± 0.5,4.8 ± 0.5,1.8,–
"C=CCN1C[C@H](OC(=O)NCCCCCC)C[C@H]1CNC(=O)c1cc(CCCF)cc(OC)c1OC [(R,S)-trans-2b, (3R,5S)-1-allyl-5-((5-(3-fluoropropyl)-2,3-dimethoxybenzamido)methyl)pyrrolidin-3-yl hexylcarbamate]",1.6 ± 0.4,7.8 ± 5.9,5.5 ± 1,3.4,–
"C=CCN1C[C@H](OC(=O)NCCCCCCCC)C[C@H]1CNC(=O)c1cc(CCCF)cc(OC)c1OC [(R,S)-trans-2c, (3R,5S)-1-allyl-5-((5-(3-fluoropropyl)-2,3-dimethoxybenzamido)methyl)pyrrolidin-3-yl octylcarbamate]",3.4 ± 0.8,27.8 ± 21.1,15.9 ± 3.3,4.7,–
"C=CCN1C[C@H](OC(=O)NCCCCCCCCCC)C[C@H]1CNC(=O)c1cc(CCCF)cc(OC)c1OC [(R,S)-trans-2d, (3R,5S)-1-allyl-5-((5-(3-fluoropropyl)-2,3-dimethoxybenzamido)methyl)pyrrolidin-3-yl decylcarbamate]",2.8 ± 0.5,21.2 ± 9.8,35.6 ± 8.1,–,–
"C=CCN1C[C@H](OC(=O)NCCOCCOCCOC)C[C@H]1CNC(=O)c1cc(CCCF)cc(OC)c1OC [(R,S)-trans-2e, (3R,5S)-1-allyl-5-((5-(3-fluoropropyl)-2,3-dimethoxybenzamido)methyl)pyrrolidin-3-yl (2-(2-(2-methoxyethoxy)ethoxy)ethyl)carbamate]",4.1 ± 0.6,–,9.2 ± 0.8,2.2,–
"C=CCN1C[C@H](OC(=O)NCCOCCOCCOCCOC)C[C@H]1CNC(=O)c1cc(CCCF)cc(OC)c1OC [(R,S)-trans-2f, (3R,5S)-1-allyl-5-((5-(3-fluoropropyl)-2,3-dimethoxybenzamido)methyl)pyrrolidin-3-yl (2,5,8,11-tetraoxatridecan-13-yl)carbamate]",5.3 ± 0.8,–,11.5 ± 2.6,2.2,–
"C#CCOCCOCCNC(=O)O[C@@H]1C[C@@H](CNC(=O)c2cc(CCCF)cc(OC)c2OC)N(CC=C)C1 [(R,S)-trans-2g, (3R,5S)-1-allyl-5-((5-(3-fluoropropyl)-2,3-dimethoxybenzamido)methyl)pyrrolidin-3-yl (2-(2-(prop-2-yn-1-yloxy)ethoxy)ethyl)carbamate]",3.7 ± 0.8,–,9 ± 0.3,2.4,–
"C=CCN1C[C@H](OC(=O)NCCCCCCc2cccs2)C[C@H]1CNC(=O)c1cc(CCCF)cc(OC)c1OC [(R,S)-trans-2h, (3R,5S)-1-allyl-5-((5-(3-fluoropropyl)-2,3-dimethoxybenzamido)methyl)pyrrolidin-3-yl (6-(thiophen-2-yl)hexyl)carbamate]",0.6 ± 0.1,–,3.9 ± 0.4,6.2,–
"C=CCN1C[C@H](OC(=O)NCCCCCCCCc2cccs2)C[C@H]1CNC(=O)c1cc(CCCF)cc(OC)c1OC [(R,S)-trans-2i, (3R,5S)-1-allyl-5-((5-(3-fluoropropyl)-2,3-dimethoxybenzamido)methyl)pyrrolidin-3-yl (8-(thiophen-2-yl)octyl)carbamate]",0.7 ± 0.1,–,3.7 ± 0.2,5.6,–
"C=CCN1C[C@H](OC(=O)NCCCCCCCCc2ccsc2)C[C@H]1CNC(=O)c1cc(CCCF)cc(OC)c1OC [(R,S)-trans-2j, (3R,5S)-1-allyl-5-((5-(3-fluoropropyl)-2,3-dimethoxybenzamido)methyl)pyrrolidin-3-yl (8-(thiophen-3-yl)octyl)carbamate]",2.1 ± 0.1,–,10.5 ± 2,5.0,–
"C=CCN1C[C@@H](OC(=O)NCCCCCCCCCC)C[C@@H]1CNC(=O)c1cc(CCCF)cc(OC)c1OC [(S,R)-trans-2d, (3S,5R)-1-allyl-5-((5-(3-fluoropropyl)-2,3-dimethoxybenzamido)methyl)pyrrolidin-3-yl decylcarbamate]",2630 ± 815,> 1000,1940 ± 380,0.7,–
"C=CCN1C[C@@H](OC(=O)NCCCCCCCCc2cccs2)C[C@@H]1CNC(=O)c1cc(CCCF)cc(OC)c1OC [(S,R)-trans-2i, (3S,5R)-1-allyl-5-((5-(3-fluoropropyl)-2,3-dimethoxybenzamido)methyl)pyrrolidin-3-yl (8-(thiophen-2-yl)octyl)carbamate]",2420 ± 975,–,1470 ± 166,0.6,–
"C=CCN1C[C@@H](OC(=O)NCCCCCCCCCC)C[C@H]1CNC(=O)c1cc(CCCF)cc(OC)c1OC [(S,S)-cis-2d, (3S,5S)-1-allyl-5-((5-(3-fluoropropyl)-2,3-dimethoxybenzamido)methyl)pyrrolidin-3-yl decylcarbamate]",282 ± 69,608 ± 231,164 ± 29,–,–
"C=CCN1C[C@@H](OC(=O)NCCCCCCCCc2cccs2)C[C@H]1CNC(=O)c1cc(CCCF)cc(OC)c1OC [(S,S)-cis-2i, (3S,5S)-1-allyl-5-((5-(3-fluoropropyl)-2,3-dimethoxybenzamido)methyl)pyrrolidin-3-yl (8-(thiophen-2-yl)octyl)carbamate]",148 ± 37,–,68 ± 12,–,–
CCCN(CCC1(O)CC(NC(=O)c2ccc3ccccc3c2)C1)C1CC1c1ccc(Cl)cc1 (stereo not drawn) [CJ-1882],–,–,–,–,Ki ([4]; CJ-1882): 2.8 nM
C=CCN1CCC[C@H]1CNC(=O)c1cc(CCCF)cc(OC)c1OC [Fallypride],–,–,–,–,"Ki [5, 7]: 0.02 nM; Distance to D3R ASP110^3.32 [6]: 3.17 ± 0.21 Å"
CCN(CCCCNC(=O)c1cc2ccccc2[nH]1)CCNC(=O)c1cc(Br)cc(OC)c1OC [HY-2-93],–,–,–,–,"D3R/D2R, D3R versus D2R selectivity (fold) ([4]; HY-2-93): 180; Ki ([4]; HY-2-93): 0.8 nM"
CC[11CH2]N1CCO[C@@H]2c3cc(O)ccc3CC[C@H]21 [[^11C]-(+)-PHNO],–,–,–,–,"Ki ([5]; Figure 1, printed with superscript H, read-out: ^HD2R affinity): 0.45 nM"
CCN1CCC[C@H]1CNC(=O)c1cc(Br)cc(OC)c1O[11CH3] [[^11C]FLB 457],–,–,–,–,"Ki [5, 7]: 0.022 nM; D2R/D3R ([4]; Figure 1, PET radiotracers): 1.294; Ki ([4]; Figure 1, PET radiotracers): 0.017 nM"
"CCN1CCC[C@H]1CNC(=O)c1c(O)c(Cl)cc(Cl)c1OC [[^11C]Raclopride, Raclopride]",–,–,–,–,"Ki [5, 7]: 1.8 nM; D2R/D3R ([4]; Figure 1, PET radiotracers): 0.514; Ki ([4]; Figure 1, PET radiotracers): 3.5 nM"

# Source: publication PMC10779535, “Design and Synthesis of D3R Bitopic Ligands with Flexible Secondary Binding Fragments: Radioligand Binding and Computational Chemistry Studies” (Molecules, 2023)
